Publication PMC12057046, “Elucidation of short linear motif-based interactions of the MIT and rhodanese domains of the ubiquitin-specific protease 8” (Biology Direct, 2025)
Values belong to the sequence of their own block, whether it stands above or below them.

Target: T1, USP8 Rhod domain (Homo sapiens, UniProt P40818)
T1 construct: USP8 Rhod (174–317) (UniProt: P40818); GST (cleaved yes); made in house; host or cells: Escherichia coli BL21-Gold (DE3)
T1 sequence (P40818 174-317): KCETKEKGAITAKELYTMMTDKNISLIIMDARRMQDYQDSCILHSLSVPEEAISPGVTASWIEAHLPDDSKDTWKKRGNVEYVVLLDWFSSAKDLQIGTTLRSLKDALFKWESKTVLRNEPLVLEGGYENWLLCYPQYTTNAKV
Test: Peptide-phage display-based deep mutational scanning (DMS), USP8 Rhod domain
Format: binding
Settings: bait USP8_Rhodanese__P40818_174_317
Description: Four rounds of phage selections were carried out using the second generation human disorderome library or the constructed deep mutational scanning library. At least three individual replicates were used for each bait protein. 10 µg of GST-tagged proteins or GST control (diluted in PBS from the stock of proteins kept in the purification elution buffer) were immobilized in 100 µL PBS on a 96-well MaxiSorp (Nunc) plate overnight at 4 °C. The plates were incubated with blocking buffer (with 0.5% BSA in PBS) for 1 h at 4 °C followed by washing with 0.05% Tween 20 in PBS four times. The naïve phage library (10^11 CFU) was diluted in 1/5th volume PEG/NaCl (20% PEG-8000, 0.4 M NaCl) and 1X PBS, incubated on ice for 10 min and centrifuged at 10,000 [drawing 3] g for 10 min. The pellet was resuspended in the volume of PBS (100 µL/ well). The GST-coated control plate was incubated with 100 µL library per well in PBS for 1 h at 4 °C to remove non-specific binders. The supernatant was transferred to the target wells and incubated for 2 h at 4 °C. The wells were washed five times with 0.05% Tween 20 in PBS and the bound phages were eluted with 100 µL per well log-phase E. coli OmniMAX by incubating at 37° C while shaking. After 30 min, M13KO7 helper phages were added and incubated for an additional 45 min. The bacterial cultures were transferred to 1 mL 2YT supplemented with 100 µg/mL carbenicillin, 30 µg/mL kanamycin and 0.3 mM IPTG and grew overnight at 37 °C while shaking. The following day the cultures were centrifuged for 10 min at 2,000 [drawing 4] g, 4 °C. 1/10th volume of 10 [drawing 5] PBS was added to adjust the pH and heated at 65 °C for 10 min. The phage pools from each round were used as in-phages for the next round of selections.
The samples were prepared for NGS as previously described. […] The PCR products were normalized with 25 µL Mag-bind Total Pure NGS beads (Omega Biotek) and 10 µL of each eluted sample (Qiagen Elution Buffer) was pooled and cleaned-up with a PCR purification kit (Qiagen). The PCR product was confirmed by 2% agarose electrophoresis and the band was extracted with QIAquick Gel extraction Kit (Qiagen) and eluted with 30 µL TE buffer. The dsDNA was quantified using QuantiT PicoGreen dsDNA Assay Kit (Thermo Fisher) and sent for NGS (Illumina MiSeq v3, 1 × 150 bp read setup, 20% PhiX, NGI SciLifeLab facility, Sweden). The NGS data were demultiplexed, adapter regions were trimmed and sequences with an average quality of at least 20 were translated to peptide sequences. The NGS data were analysed using custom Python scripts. The total read NGS counts for each selection experiment of each peptide sequence were compiled and annotated in PepTools (https://slim.icr.ac.uk/tools/peptools/). Since ProP-PD is in essence a competition assay, the possibility of the input phage library influencing the selection outcome was explored. […] Pearson correlation coefficient and p-value were calculated using Python’s SciPy library.

[1] = wild-type/mutant pair ratio of averaged fractions, negative values where mutant fraction is higher
[2] = wild type/mutant pair, vs hit_library_peptide_wt GLALWEAKMKQLAERA, negative where mutant fraction exceeds wild type, ProP-PD pairs (sheet S7.B)
[3] = ProP-PD pairs, wild-type/mutant pair, wild type KIAA1614 569-584 GMERVLGGLSSPLRLL (wt_00013)
[4] = ProP-PD DMS, pair wild-type GMERVLGGLSSPLRLL (wt_00013) vs mutant, positive where wild-type fraction is higher, negative where mutant fraction is higher

Sequence: GLALWEAKMKSLAERA
hit_pair_ratio [1]: 1.39

Sequence: GLALWEAKMKVLAERA
hit_pair_ratio [1]: 553.50

Sequence: GLALWEAKMKYLAERA
hit_pair_ratio [1]: 55.35

Sequence: GLALWEAKMPQLAERA
hit_pair_ratio [1]: 553.50

Sequence: GLALWEAKMTQLAERA
hit_pair_ratio [1]: 29.92

Sequence: GLALWEAKMWQLAERA
hit_pair_ratio [1]: 2.24

Sequence: GLALWEAKMYQLAERA
hit_pair_ratio [1]: 31.05

Sequence: GLALWEAKNKQLAERA
hit_pair_ratio [2]: 276.75

Sequence: GLALWEAKQKQLAERA
hit_pair_ratio [2]: 151.61

Sequence: GLALWEAKRKQLAERA
hit_pair_ratio [2]: 44.28

Sequence: GLALWEAKYKQLAERA
hit_pair_ratio [2]: 123.00

Sequence: GLALWEANMKQLAERA
hit_pair_ratio [2]: 208.81

Sequence: GLALWEEKMKQLAERA
hit_pair_ratio [2]: 553.50

Sequence: GLALWEGKMKQLAERA
hit_pair_ratio [2]: 68.11

Sequence: GLALWELKMKQLAERA
hit_pair_ratio [2]: 1107.01

Sequence: GLALWEQKMKQLAERA
hit_pair_ratio [2]: -1.30

Sequence: GLALWESKMKQLAERA
hit_pair_ratio [2]: 208.81

Sequence: GLALWEVKMKQLAERA
hit_pair_ratio [2]: 92.62

Sequence: GLALWEWKMKQLAERA
hit_pair_ratio [2]: 23.98

Sequence: GLALWEYKMKQLAERA
hit_pair_ratio [2]: 208.81

Sequence: GLALWGAKMKQLAERA
hit_pair_ratio [2]: 24.44

Sequence: GLALWSAKMKQLAERA
hit_pair_ratio [2]: 21.71

Sequence: GLALWYAKMKQLAERA
hit_pair_ratio [2]: 417.62

Sequence: GLANWEAKMKQLAERA
hit_pair_ratio [2]: 4.24

Sequence: GLAPWEAKMKQLAERA
hit_pair_ratio [2]: 1107.01

Sequence: GLGLWEAKMKQLAERA
hit_pair_ratio [2]: 123.66

Sequence: GLHLWEAKMKQLAERA
hit_pair_ratio [2]: 553.50

Sequence: GLKLWEAKMKQLAERA
hit_pair_ratio [2]: 369.00

Sequence: GLLLWEAKMKQLAERA
hit_pair_ratio [2]: 1107.01

Sequence: GLPLWEAKMKQLAERA
hit_pair_ratio [2]: 10.62

Sequence: GLVLWEAKMKQLAERA
hit_pair_ratio [2]: 27.71

Sequence: GLWLWEAKMKQLAERA
hit_pair_ratio [2]: 49.74

Sequence: GLYLWEAKMKQLAERA
hit_pair_ratio [2]: 27.03

Sequence: GMALWEAKMKQLAERA
hit_pair_ratio [2]: 7.96

Sequence: GMARVLGGLSSPLRLL
hit_pair_ratio [3]: 8.89

Sequence: GMEAVLGGLSSPLRLL
hit_pair_ratio [3]: 131.67

Sequence: GMELVLGGLSSPLRLL
hit_pair_ratio [3]: 160.99

Sequence: GMENVLGGLSSPLRLL
hit_pair_ratio [3]: 107.32

Sequence: GMERALGGLSSPLRLL
hit_pair_ratio [3]: 4.69

Sequence: GMERFLGGLSSPLRLL
hit_pair_ratio [3]: -9.37

Sequence: GMERHLGGLSSPLRLL
hit_pair_ratio [3]: -4.18

Sequence: GMERLLGGLSSPLRLL
hit_pair_ratio [3]: 5.91

Sequence: GMERNLGGLSSPLRLL
hit_pair_ratio [3]: -2.85

Sequence: GMERQLGGLSSPLRLL
hit_pair_ratio [3]: -6.89

Sequence: GMERRLGGLSSPLRLL
hit_pair_ratio [3]: 16.75

Sequence: GMERTLGGLSSPLRLL
hit_pair_ratio [3]: -5.12

Sequence: GMERVFGGLSSPLRLL
hit_pair_ratio [3]: 321.97

Sequence: GMERVLAGLSSPLRLL
hit_pair_ratio [3]: -1.35

Sequence: GMERVLDGLSSPLRLL
hit_pair_ratio [3]: -20.23

Sequence: GMERVLFGLSSPLRLL
hit_pair_ratio [3]: -3.55

Sequence: GMERVLGGESSPLRLL
hit_pair_ratio [3]: -80.43

Sequence: GMERVLGGFSSPLRLL
hit_pair_ratio [4]: 53.66

Sequence: GMERVLGGGSSPLRLL
hit_pair_ratio [4]: 20.85

Sequence: GMERVLGGKSSPLRLL
hit_pair_ratio [4]: 20.99

Sequence: GMERVLGGLISPLRLL
hit_pair_ratio [4]: 321.97

Sequence: GMERVLGGLSAPLRLL
hit_pair_ratio [4]: 160.99

Sequence: GMERVLGGLSFPLRLL
hit_pair_ratio [4]: 80.49

Sequence: GMERVLGGLSSLLRLL
hit_pair_ratio [4]: 321.97

Sequence: GMERVLGGLSSPARLL
hit_pair_ratio [4]: 46.00

Sequence: GMERVLGGLSSPDRLL
hit_pair_ratio [4]: 54.66

Sequence: GMERVLGGLSSPERLL
hit_pair_ratio [4]: 4.36

Continued, values first:

hit_pair_ratio [1]: 33.74
Sequence: GLALWEAKMKTLAERA

hit_pair_ratio [1]: 221.40
Sequence: GLALWEAKMKWLAERA

hit_pair_ratio [1]: 26.20
Sequence: GLALWEAKMLQLAERA

hit_pair_ratio [1]: 417.62
Sequence: GLALWEAKMMQLAERA

hit_pair_ratio [2]: -19.47
Sequence: GLALWEAKMNQLAERA

hit_pair_ratio [1]: 31.63
Sequence: GLALWEAKMQQLAERA

hit_pair_ratio [1]: 1.94
Sequence: GLALWEAKMRQLAERA

hit_pair_ratio [1]: -7.21
Sequence: GLALWEAKMSQLAERA

hit_pair_ratio [1]: -1.44
Sequence: GLALWEAKMVQLAERA

hit_pair_ratio [2]: 195.90
Sequence: GLALWEAKPKQLAERA

hit_pair_ratio [2]: -2.49
Sequence: GLALWEAKSKQLAERA

hit_pair_ratio [2]: 26.45
Sequence: GLALWEAKTKQLAERA

hit_pair_ratio [2]: 369.00
Sequence: GLALWEAKVKQLAERA

hit_pair_ratio [2]: 2.15
Sequence: GLALWEAKWKQLAERA

hit_pair_ratio [2]: 276.75
Sequence: GLALWEAPMKQLAERA

hit_pair_ratio [2]: 1107.01
Sequence: GLALWEAQMKQLAERA

hit_pair_ratio [2]: 1107.01
Sequence: GLALWEFKMKQLAERA

hit_pair_ratio [2]: 2.05
Sequence: GLALWEHKMKQLAERA

hit_pair_ratio [2]: 123.00
Sequence: GLALWEIKMKQLAERA

hit_pair_ratio [2]: 20.50
Sequence: GLALWEMKMKQLAERA

hit_pair_ratio [2]: 24.65
Sequence: GLALWENKMKQLAERA

hit_pair_ratio [2]: 87.84
Sequence: GLALWEPKMKQLAERA

hit_pair_ratio [2]: 1107.01
Sequence: GLALWERKMKQLAERA

hit_pair_ratio [2]: 11.88
Sequence: GLALWETKMKQLAERA

hit_pair_ratio [2]: 553.50
Sequence: GLALWFAKMKQLAERA

hit_pair_ratio [2]: 123.00
Sequence: GLALWHAKMKQLAERA

hit_pair_ratio [2]: 417.62
Sequence: GLALWVAKMKQLAERA

hit_pair_ratio [2]: -5.97
Sequence: GLAMWEAKMKQLAERA

hit_pair_ratio [2]: 10.90
Sequence: GLAQWEAKMKQLAERA

hit_pair_ratio [2]: 12.82
Sequence: GLARWEAKMKQLAERA

hit_pair_ratio [2]: 101.08
Sequence: GLASWEAKMKQLAERA

hit_pair_ratio [2]: 8.05
Sequence: GLATWEAKMKQLAERA

hit_pair_ratio [2]: -2.03
Sequence: GLAVWEAKMKQLAERA

hit_pair_ratio [2]: -4.35
Sequence: GLDLWEAKMKQLAERA

hit_pair_ratio [2]: -13.35
Sequence: GLELWEAKMKQLAERA

hit_pair_ratio [3]: 1.84
Sequence: GLERVLGGLSSPLRLL

hit_pair_ratio [2]: 1107.01
Sequence: GLFLWEAKMKQLAERA

hit_pair_ratio [2]: 1107.01
Sequence: GLILWEAKMKQLAERA

hit_pair_ratio [2]: 20.89
Sequence: GLMLWEAKMKQLAERA

hit_pair_ratio [2]: -1.71
Sequence: GLQLWEAKMKQLAERA

hit_pair_ratio [2]: 33.04
Sequence: GLSLWEAKMKQLAERA

hit_pair_ratio [2]: 92.62
Sequence: GLTLWEAKMKQLAERA

hit_pair_ratio [3]: -1.75
Sequence: GMDRVLGGLSSPLRLL

hit_pair_ratio [3]: -11.89
Sequence: GMERDLGGLSSPLRLL

hit_pair_ratio [3]: -10.69
Sequence: GMERELGGLSSPLRLL

hit_pair_ratio [3]: -1.02
Sequence: GMERGLGGLSSPLRLL

hit_pair_ratio [3]: 20.85
Sequence: GMERILGGLSSPLRLL

hit_pair_ratio [3]: 30.82
Sequence: GMERKLGGLSSPLRLL

hit_pair_ratio [3]: -1.32
Sequence: GMERMLGGLSSPLRLL

hit_pair_ratio [3]: 1.07
Sequence: GMERPLGGLSSPLRLL

hit_pair_ratio [3]: 12.88
Sequence: GMERSLGGLSSPLRLL

hit_pair_ratio [3]: 29.56
Sequence: GMERVGGGLSSPLRLL

hit_pair_ratio [3]: -3.21
Sequence: GMERVIGGLSSPLRLL

hit_pair_ratio [3]: -2.19
Sequence: GMERVLEGLSSPLRLL

hit_pair_ratio [3]: 321.97
Sequence: GMERVLGDLSSPLRLL

hit_pair_ratio [3]: 1.62
Sequence: GMERVLGGASSPLRLL

hit_pair_ratio [3]: -19.26
Sequence: GMERVLGGDSSPLRLL

hit_pair_ratio [4]: 49.95
Sequence: GMERVLGGHSSPLRLL

hit_pair_ratio [3]: 4.20
Sequence: GMERVLGGISSPLRLL

hit_pair_ratio [4]: 321.97
Sequence: GMERVLGGLASPLRLL

hit_pair_ratio [4]: 131.67
Sequence: GMERVLGGLESPLRLL

hit_pair_ratio [4]: 1.07
Sequence: GMERVLGGLHSPLRLL

hit_pair_ratio [4]: 131.67
Sequence: GMERVLGGLPSPLRLL

hit_pair_ratio [4]: -19.71
Sequence: GMERVLGGLSDPLRLL

hit_pair_ratio [4]: 15.92
Sequence: GMERVLGGLSEPLRLL

hit_pair_ratio [4]: -9.56
Sequence: GMERVLGGLSNPLRLL

hit_pair_ratio [4]: 321.97
Sequence: GMERVLGGLSRPLRLL
